According to patent US12306164B2, “Therapeutic drug for lipid-peroxidation-induced diseases and screening method for therapeutic drugs for lipid-peroxidation-induced diseases” (FUSO PHARMACEUTICAL INDUSTRIES, LTD., priority 2017, dated 2025):
Counter-ions that a name gives are not always drawn.

Experiments:
[1] = test system: HepG2 cells; experiment: Tertiary screening, Core Library (MTT assay); type: cell-based, human; details: 50 μM compound, 100 μM AA or tBHP, 24 hours
Experimental: Specifically, the nine hit compounds, Compound Nos. 7, 19, 39, 48, 52, 64, 73, 78, 80, of the secondary screening had 5, 2, 4, 6, 6, 5, 5, 10, 2 structural analogs, respectively, thus, a total 45 structural analogs were taken. Then, including the original 9 compounds, a total 54 compounds were subjected to tertiary screening, and the activity values were calculated in the same manner. […]

[2] = test system: HepG2 cells; experiment: Tertiary screening, Core Library (NBD-TEEPO assay); type: cell-based, human; details: 50 μM compound, 200 μM AA or 300 μM tBHP
Experimental: The Core Library of Drug Discovery Initiative, the University of Tokyo, includes structural analogs for each compound. Then, secondary screening was also performed for structural analog compounds for each candidate compound in the same manner as Example 13 and the activity values were evaluated.
Specifically, the nine hit compounds, Compound Nos. 7, 19, 39, 48, 52, 64, 73, 78, 80, of the secondary screening had 5, 2, 4, 6, 6, 5, 5, 10, 2 structural analogs, respectively, thus, a total 45 structural analogs were taken. Then, including the original 9 compounds, a total 54 compounds were subjected to tertiary screening, and the activity values were calculated in the same manner.
(§1) For the evaluation of cytotoxicity, 50 μM antioxidant was added to HepG2 cells in DMEM medium (0.5% DMSO), and after incubation at 37° C. for 72 hours, the cell viability was measured. • 4) The activity values of the two-added systems in each of the assay using NBD-TEEPO and the MTT assay were plotted (FIG. 15C and FIG. 16C).

[3] = test system: HepG2 cells; experiment: Secondary screening, Core Library (MTT assay); type: cell-based, human; details: 50 μM compound, 100 μM AA or tBHP, 24 hours
Experimental: As a cell-based screening for examining the cell death inhibitory activity, an assay using human hepatoma-derived HepG2 cells and AA and tBHP as radical initiators is performed, and the cell viability is measured. The activity value is determined from the cell viability value based on the following expression: Activity value=100(ViabilitySample−ViabilityControl(+))/(ViabilityControl(−)−ViabilityControl(+)) • ViabilitySample: Cell viability for with reaction initiator and with each compound (n=1) • ViabilityControl(+): Cell viability for with reaction initiator and with each compound • ViabilityControl(−): Cell viability for without reaction initiator and without each compound
For the compounds, 10 mM 100% DMSO solutions (dispensed at 5.0 µL/well) were provided from Drug Discovery Initiative, the University of Tokyo. 495 μL of DMEM medium for measurement was added, and 1.0% DMSO solution containing 100 μM of the compound was prepared. This solution was dispensed by 80 μL with Biomek NXP into a measuring plate on which cells were seeded in advance. To the test compound (100 μM 1.0% DMSO), 64 μL of DMEM medium, 16 μL of PBS in which AA (1000 μM, 5.0% ethanol) or tBHP (1000 μM) was dissolved were manually dispensed. The final concentration was 5.0 μM NBD-TEEPO compound, 50 μM test compound, and 100 μM AA or tBHP in DMEM medium (0.5% DMSO, 0.5% acetonitrile). After 24 hours, the medium was exchanged, and MTT solution (0.5 mg/mL, 0.5% DMSO) was added. Then, cells were incubated for 24 hours, and the solution was removed. 100 μL of DMSO was added, and the absorbance at 630 nm was measured. The cell viability was calculated according to the expression described herein, with regarding the case without AA or tBHP as 100%.

[4] = test system: HepG2 cells; experiment: Secondary screening, Core Library (NBD-TEEPO assay); type: cell-based, human; details: 50 μM compound, 200 μM AA (45 minutes) or 300 μM tBHP (60 minutes); high activity values in both systems
Experimental: In the screening by the cell-based assay method, activity values were determined from the values of fluorescence intensity measured in each screening using AA or tBHP as a reaction initiator, based on the following expression: Activity value=100(AUCSample−AUCBackground)/(AUCControl−AUCBackground) • AUCSample: Area under the curve calculated from the fluorescence intensity for with reaction initiator and with each compound (n=1) • AUCControl: Area under the curve calculated from fluorescence intensity for with reaction initiator and without each compound • AUCBackground: Area under the curve calculated from fluorescence intensity for without reaction initiator and without each compound
For the compounds, 10 mM 100% DMSO solutions (dispensed at 5.0 µL/well) were provided from Drug Discovery Initiative, the University of Tokyo. 495 μL of DMEM medium for measurement was added, and a 1.0% DMSO solution containing 100 μM of the compound was prepared. This solution was dispensed by 80 μL with Biomek NXP into a measuring plate on which cells were seeded in advance. To the test compound (100 μM 1.0% DMSO), 64 μL of DMEM medium (1.25% acetonitrile) containing 12.5 M NBD-TEEPO compound, and 16 μL of PBS in which AA (2000 μM, 5.0% ethanol) or tBHP (3000 μM) was dissolved were manually dispensed. The final concentration was 50 μM test compound and 200 μM AA or 300 μM tBHP in DMEM medium (0.5% DMSO, 0.5% acetonitrile).
The reaction mixture was mixed at 37° C., and the fluorescence intensity at an excitation wavelength of 470 nm and a fluorescence wavelength of 530 nm was measured over time every 3 minutes. The AUC was calculated from the fluorescence intensity for 45 minutes in the AA-added system or 60 minutes in the tBHP-added system, and the activity value of each test compound was calculated according to the expression described herein.

[5] = test system: lipid peroxidation reaction in liposomes (AAPH system); experiment: NBD-TEEPO assay in artificial lipid membranes, AAPH system; type: biochemical; details: AAPH 20 mM, AsA 0-20 μM, after 40 minutes
Experimental: (§2) Probes (NBD-TEEPO compound) (5.0 μM) and liposomes (2.5 mg/mL Egg PC, 0.1 mg/mL DCP) were mixed in phosphate buffer (10 mM, pH 7.4, 0.5% DMSO, 0.5% acetonitrile) at 37° C. AAPH (0-20 mM) or FeSO4 (0-2.0 mM) was added to the mixture, and the lipid peroxidation reaction was started. After 40 minutes in the AAPH system or after 60 minutes in the Fe^2+ system, the fluorescence intensity was measured at an excitation wavelength of 470 nm and a fluorescence wavelength of 530 nm.

[6] = test system: HepG2 cells; experiment: Intracellular lipid peroxidation inhibition by antioxidants (NBD-TEEPO assay); type: cell-based, human; details: 200 μM AA or 300 μM tBHP, 50 μM antioxidant, 45 minutes
Experimental: Human hepatoma cells (HepG2 cells) were cultured with DMEM medium (containing 10% FBS, 1% Penicillin-Streptomycin and 1×MEM non-essential amino acids) in a CO2 incubator (37° C., 5% CO2). Passaging was performed when 60-70% subconfluent state was reached. DMEM media (phenol red free, containing 1% Penicillin-Streptomycin) was used for various measurements. HepG2 cells were seeded in a 96-well plate at 10,000 cells/well. The cells were incubated for 24 hours to adhere. AA (200 μM) or tBHP (0 to 300 μM), antioxidant (50 μM), and probe (5.0 μM) were added to the cells in DMEM medium (0.5% DMSO, 0.5% acetonitrile), and after 45 minutes, the fluorescence intensity was measured at an excitation wavelength of 470 nm and a fluorescence wavelength of 530 nm.

[7] = test system: lipid peroxidation reaction in liposomes (Fe^2+ system); experiment: NBD-TEEPO assay in artificial lipid membranes, Fe2+ system; type: biochemical; details: FeSO4 1 mM, Eda 0-20 μM, after 60 minutes
Experimental: as §2

[8] = test system: HepG2 cells; experiment: Cytotoxicity evaluation at tertiary screening (MTT, compound alone); type: cell-based; details: 50 μM compound alone, 72 hours
Experimental: To 1.0×10^4 HepG2 cells, 50 μM compound were added, and cell viability after 72 hours was measured by an MTT assay.
as §1

[9] = not told; cited from earlier work

SMILES	cell death inhibitory effects [1]	lipid peroxidation inhibitory effects [2]	further results
Cc1cc(C)cc(-n2ccc3ccc(N)cc32)c1 [Compound 78-3, 1-(3,5-Dimethylphenyl)-1H-indol-6-amine]	high	high	
Nc1ccc2c(c1)CCN2c1ccc(OC(F)(F)F)cc1 [Compound 78, 1-(4-(Trifluoromethoxy)phenyl)indolin-5-amine]	high	high	inhibition rates (cell death inhibition) in both AA-added and tBHP-added systems [3]: high inhibition rates in both systems
CC(Nc1ccc(Nc2ccccc2)cc1)C(=O)Nc1ccc(S(N)(=O)=O)cc1 (centres unmarked) [Compound 7, 2-((4-(Phenylamino)phenyl)amino)-N-(4-sulfamoylphenyl)propanamide]			activity values (lipid peroxidation inhibition) in both AA-added and tBHP-added systems [4]: hit compounds
NC(=O)c1cccc(-c2ccc3nc(-c4cccc(OCCO)c4)c(NCCN4CCOCC4)n3c2)c1 [Compound 73, 3-(2-(3-(2-Hydroxyethoxy)phenyl)-3-((2-morpholinoethyl)amino)imidazo[1,2-a]pyridin-6-yl)benzamide]			inhibition rates (cell death inhibition) in both AA-added and tBHP-added systems [3]: high inhibition rates in both systems
COc1ccc(-n2ccc3cc(N)ccc32)cc1 [Compound 78-5, 1-(4-Methoxyphenyl)-1H-indol-5-amine]	high	high	
COc1cc(/C=C/c2ccc3cccc([N+](=O)[O-])c3n2)cc(OC)c1O [Compound 48, 2,6-Dimethoxy-4-(2-(8-nitroquinolin-2-yl)vinyl)phenol]			activity values (lipid peroxidation inhibition) in both AA-added and tBHP-added systems [4]: hit compounds
O=C1O[C@H]([C@@H](O)CO)C(O)=C1O [AsA, ascorbic acid]			inhibition of NBD-TEEPO fluorescence increase [5]: inhibited the fluorescence increase concentration-dependently
COC(=O)c1ccc(Nc2ccccc2)c(N)c1 [Compound 52, Methyl 3-amino-4-(phenylamino)benzoate]	high	high	inhibition rates (cell death inhibition) in both AA-added and tBHP-added systems [3]: high inhibition rates in both systems
Oc1cc(O)c2c(c1)O[C@H](c1ccc(O)c(O)c1)[C@H](O)C2 [Catechin, (−)-epicatechin]			inhibitory effect on AA- and tBHP-induced fluorescence increase [6]: strongest inhibitory effect
CN(C1CC(C)(C)N(O)C(C)(C)C1)S(=O)(=O)CC12CCC(CC1=O)C2(C)C (centres unmarked) [Compound 39, 1-(7,7-Dimethyl-2-oxobicyclo[2.2.1]heptan-1-yl)-N-(1-hydroxy-2,2,6,6-tetramethylpiperidin-4-yl)-N-methylmethanesulfonamide]			inhibition rates (cell death inhibition) in both AA-added and tBHP-added systems [3]: high inhibition rates in both systems
CN(C)c1cc2c(cc1N)-c1ccccc1C2 [Compound 64, N^2,N^2-Dimethyl-9H-fluorene-2,3-diamine]			activity values (lipid peroxidation inhibition) in both AA-added and tBHP-added systems [4]: hit compounds
Nc1ccc2c(ccn2-c2ccc(OC(F)(F)F)cc2)c1 [Compound 78-8]	high	high	
Cc1cc(C)cc(N2CCc3ccc(N)cc32)c1 [Compound 78-4, 1-(3,5-Dimethylphenyl)indolin-6-amine]	high	high	
CSc1ccc(-n2ccc3cc(N)ccc32)cc1 [Compound 78-6, 1-(4-(Methylthio)phenyl)-1H-indol-5-amine]	high	high	
CC1=NN(c2ccccc2)C(=O)C1 [Eda, Edaravone]			inhibition of NBD-TEEPO fluorescence increase [7]: inhibited the fluorescence increase concentration-dependently
C/C(=N/Nc1nnc(Nc2ccccc2Cl)s1)c1ccccn1 [Compound 19]			inhibition rates (cell death inhibition) in both AA-added and tBHP-added systems [3]: high inhibition rates in both systems
COc1cc(NS(C)(=O)=O)ccc1Nc1c2ccc(C)cc2nc2c1[nH]c1ccccc12 [Compound 80, N-(3-Methoxy-4-((3-methyl-1-10H-indolo[3,2-b]quinolin-11-yl)amino)phenyl)methanesulfonamide]		highest	cytotoxicity [8]: extremely high; activity values (lipid peroxidation inhibition) in both AA-added and tBHP-added systems [4]: hit compounds
COC(=O)c1ccc(Nc2cccc(OC)c2)c(N)c1 [Compound 52-3, Methyl 3-amino-4-((3-methoxyphenyl)amino)benzoate]	high	high	
COC(=O)c1ccc(Nc2ccc(OC)cc2)c(N)c1 [Compound 52-1, Methyl 3-amino-4-((4-methoxyphenyl)amino)benzoate]	high	high	
COC(=O)c1ccc(NCc2ccccc2)c(N)c1 [Compound 52-4, Methyl 3-amino-4-(benzylamino)benzoate]	high	high	
CN1CC[C@]2(C)c3cc(O)ccc3N(C)[C@H]12 [Compound W, (−)-eseroline fumarate]			permeability to blood-retinal barrier (BRB) [9]: highly permeable
